#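 Tested at 5 concentrations; 48 h exposure; 96-well plates; endpoints linearly interpolated, else capped at highest concentration. At the TGI there is no net growth.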
# Assays:
# Experiment in all cases: inhibition of tumour cell growth, NCI panel, 48 h
# HT29 colon = test system: HT29 colon
# IGROV1 ovarian = test system: IGROV1 ovarian
# MALME-3M melanoma = test system: MALME-3M melanoma
# EKVX NSCLC = test system: EKVX NSCLC
# KM12 colon = test system: KM12 colon
# NCI-H460 lung = test system: NCI-H460 lung
# 786-0 renal = test system: 786-0 renal
# SK-MEL-5 melanoma = test system: SK-MEL-5 melanoma
# PC-3 prostate = test system: PC-3 prostate
# K-562 leukemia = test system: K-562 leukemia
# SK-MEL-2 melanoma = test system: SK-MEL-2 melanoma
# RXF 393 renal = test system: RXF 393 renal
# MDA-MB-435 = test system: MDA-MB-435
# HOP-62 NSCLC = test system: HOP-62 NSCLC
# SF-268 CNS = test system: SF-268 CNS
# NCI-H226 lung = test system: NCI-H226 lung
# LOX IMVI melanoma = test system: LOX IMVI melanoma
# ACHN renal = test system: ACHN renal
# MDA-N = test system: MDA-N
# T-47D breast = test system: T-47D breast
# A549 NSCLC = test system: A549 NSCLC
# SF-295 CNS = test system: SF-295 CNS
# HCT-15 colon = test system: HCT-15 colon
# SW-620 colon = test system: SW-620 colon
# COLO 205 colon = test system: COLO 205 colon
# DU-145 prostate = test system: DU-145 prostate
# CCRF-CEM leukemia = test system: CCRF-CEM leukemia
# M14 melanoma = test system: M14 melanoma
# HOP-92 NSCLC = test system: HOP-92 NSCLC
# NCI-H522 lung = test system: NCI-H522 lung
# U251 CNS = test system: U251 CNS
# RPMI-8226 leukemia = test system: RPMI-8226 leukemia
# UO-31 renal = test system: UO-31 renal
# MCF7 breast = test system: MCF7 breast
# TK-10 renal = test system: TK-10 renal
# SN12C renal = test system: SN12C renal
# UACC-257 melanoma = test system: UACC-257 melanoma
# SF-539 CNS = test system: SF-539 CNS
# A498 renal = test system: A498 renal
# SK-MEL-28 melanoma = test system: SK-MEL-28 melanoma
# NCI-H23 lung = test system: NCI-H23 lung
# MOLT-4 leukemia = test system: MOLT-4 leukemia
# SR leukemia = test system: SR leukemia
# OVCAR-3 ovarian = test system: OVCAR-3 ovarian
# SNB-75 CNS = test system: SNB-75 CNS
# NCI/ADR-RES ovarian = test system: NCI/ADR-RES ovarian
# HL-60(TB) leukemia = test system: HL-60(TB) leukemia
# SK-OV-3 ovarian = test system: SK-OV-3 ovarian
# MDA-MB-231 breast = test system: MDA-MB-231 breast
# SNB-19 CNS = test system: SNB-19 CNS
# HCC-2998 colon = test system: HCC-2998 colon
# OVCAR-8 ovarian = test system: OVCAR-8 ovarian
# HCT-116 colon = test system: HCT-116 colon
# BT-549 breast = test system: BT-549 breast
# UACC-62 melanoma = test system: UACC-62 melanoma
# OVCAR-4 ovarian = test system: OVCAR-4 ovarian
# CAKI-1 renal = test system: CAKI-1 renal
# OVCAR-5 ovarian = test system: OVCAR-5 ovarian
# HS 578T breast = test system: HS 578T breast
smiles,measurement,setting,value
CCOC(=O)/C(SC#N)=C(/N)N1CCCC1,TGI,HT29 colon,> 100 µM
same,TGI,IGROV1 ovarian,> 100 µM
same,TGI,MALME-3M melanoma,> 100 µM
same,TGI,EKVX NSCLC,> 100 µM
same,TGI,KM12 colon,> 100 µM
same,TGI,NCI-H460 lung,> 100 µM
same,TGI,786-0 renal,> 100 µM
same,TGI,SK-MEL-5 melanoma,> 100 µM
same,TGI,PC-3 prostate,> 100 µM
same,TGI,K-562 leukemia,> 100 µM
same,TGI,SK-MEL-2 melanoma,> 100 µM
same,TGI,RXF 393 renal,> 100 µM
same,TGI,MDA-MB-435,> 100 µM
same,TGI,HOP-62 NSCLC,> 100 µM
same,TGI,SF-268 CNS,> 100 µM
same,TGI,NCI-H226 lung,> 100 µM
same,TGI,LOX IMVI melanoma,> 100 µM
same,TGI,ACHN renal,> 100 µM
same,TGI,MDA-N,> 100 µM
same,TGI,T-47D breast,> 100 µM
same,TGI,A549 NSCLC,> 100 µM
same,TGI,SF-295 CNS,> 100 µM
same,TGI,HCT-15 colon,> 100 µM
same,TGI,SW-620 colon,> 100 µM
same,TGI,COLO 205 colon,> 100 µM
same,TGI,DU-145 prostate,> 100 µM
same,TGI,CCRF-CEM leukemia,> 100 µM
same,TGI,M14 melanoma,> 100 µM
same,TGI,HOP-92 NSCLC,> 100 µM
same,TGI,NCI-H522 lung,> 100 µM
same,TGI,U251 CNS,> 100 µM
same,TGI,RPMI-8226 leukemia,> 100 µM
same,TGI,UO-31 renal,> 100 µM
same,TGI,MCF7 breast,> 100 µM
same,TGI,TK-10 renal,> 100 µM
same,TGI,SN12C renal,> 100 µM
same,TGI,UACC-257 melanoma,> 100 µM
same,TGI,SF-539 CNS,> 100 µM
same,TGI,A498 renal,> 100 µM
same,TGI,SK-MEL-28 melanoma,> 100 µM
same,TGI,NCI-H23 lung,> 100 µM
same,TGI,MOLT-4 leukemia,> 100 µM
same,TGI,SR leukemia,> 100 µM
same,TGI,OVCAR-3 ovarian,> 100 µM
same,TGI,SNB-75 CNS,> 100 µM
same,TGI,NCI/ADR-RES ovarian,> 100 µM
same,TGI,HL-60(TB) leukemia,> 100 µM
same,TGI,SK-OV-3 ovarian,> 100 µM
same,TGI,MDA-MB-231 breast,> 100 µM
same,TGI,SNB-19 CNS,> 100 µM
same,TGI,HCC-2998 colon,> 100 µM
same,TGI,OVCAR-8 ovarian,> 100 µM
same,TGI,HCT-116 colon,> 100 µM
same,TGI,BT-549 breast,> 100 µM
same,TGI,UACC-62 melanoma,> 100 µM
same,TGI,OVCAR-4 ovarian,> 100 µM
same,TGI,CAKI-1 renal,> 100 µM
same,TGI,OVCAR-5 ovarian,> 100 µM
same,TGI,HS 578T breast,> 100 µM
O=S(/C=C/C=C/S(=O)(=O)c1ccccc1)c1ccccc1 (stereo not drawn),TGI,HT29 colon,> 10 µM
same,TGI,IGROV1 ovarian,> 10 µM
same,TGI,MALME-3M melanoma,4.22 µM
same,TGI,EKVX NSCLC,> 10 µM
same,TGI,KM12 colon,> 4.88 µM
same,TGI,NCI-H460 lung,> 10 µM
same,TGI,786-0 renal,1.61 µM
same,TGI,SK-MEL-5 melanoma,3.91 µM
same,TGI,PC-3 prostate,> 10 µM
same,TGI,K-562 leukemia,2.83 µM
same,TGI,SK-MEL-2 melanoma,4.2 µM
same,TGI,RXF 393 renal,3.31 µM
same,TGI,MDA-MB-435,5.96 µM
same,TGI,HOP-62 NSCLC,> 10 µM
same,TGI,SF-268 CNS,> 9.08 µM
same,TGI,NCI-H226 lung,> 10 µM
same,TGI,LOX IMVI melanoma,> 3.89 µM
same,TGI,ACHN renal,> 9.31 µM
same,TGI,MDA-N,> 5.51 µM
same,TGI,T-47D breast,> 4.97 µM
same,TGI,A549 NSCLC,> 10 µM
same,TGI,SF-295 CNS,> 10 µM
same,TGI,HCT-15 colon,3.97 µM
same,TGI,SW-620 colon,2.67 µM
same,TGI,COLO 205 colon,3.48 µM
same,TGI,DU-145 prostate,> 7 µM
same,TGI,CCRF-CEM leukemia,2.27 µM
same,TGI,M14 melanoma,1.56 µM
same,TGI,HOP-92 NSCLC,4.87 µM
same,TGI,NCI-H522 lung,3.17 µM
same,TGI,U251 CNS,> 10 µM
same,TGI,RPMI-8226 leukemia,3.06 µM
same,TGI,UO-31 renal,5.64 µM
same,TGI,MCF7 breast,3.17 µM
same,TGI,TK-10 renal,6.08 µM
same,TGI,SN12C renal,3.94 µM
same,TGI,UACC-257 melanoma,3.77 µM
same,TGI,SF-539 CNS,> 10 µM
same,TGI,A498 renal,> 10 µM
same,TGI,SK-MEL-28 melanoma,4.35 µM
same,TGI,NCI-H23 lung,4.39 µM
same,TGI,MOLT-4 leukemia,4.11 µM
same,TGI,SR leukemia,3.07 µM
same,TGI,OVCAR-3 ovarian,3.44 µM
same,TGI,SNB-75 CNS,> 10 µM
same,TGI,NCI/ADR-RES ovarian,5.02 µM
same,TGI,HL-60(TB) leukemia,0.909 µM
same,TGI,SK-OV-3 ovarian,> 10 µM
same,TGI,MDA-MB-231 breast,8.8 µM
same,TGI,SNB-19 CNS,> 10 µM
same,TGI,HCC-2998 colon,> 10 µM
same,TGI,OVCAR-8 ovarian,3.7 µM
same,TGI,HCT-116 colon,2.84 µM
same,TGI,BT-549 breast,> 10 µM
same,TGI,UACC-62 melanoma,> 7.77 µM
same,TGI,OVCAR-4 ovarian,4.33 µM
same,TGI,CAKI-1 renal,3.43 µM
same,TGI,OVCAR-5 ovarian,> 10 µM
same,TGI,HS 578T breast,> 10 µM

# — PubChem BioAssay (NCI)
